Data published in patent publication US20130224236A1, “HSV-1 EPITOPES AND METHODS FOR USING SAME” (UNIVERSITY OF WASHINGTON, priority 2010, published 2013).

Experiments:
[1] = tested on: Bulk-expanded HSV-1-reactive CD4 T-cell lines; experiment: ORFeome CD4 screen: 3H thymidine proliferation to recombinant HSV-1 proteins; format: cell-based, human; conditions: of 11 persons
[2] = tested on: bulk polyclonal CD8 effector cells; experiment: ORFeome CD8 screen: IFN-γ ELISA after adding CD8 responders to Cos-7 aAPC co-transfected with HLA class I cDNA and HSV-1 ORF; format: cell-based, human

UL46: HSV-1 tegument protein VP11/12 encoded by gene UL46
number of persons with CD4 recognition of the protein [1]: 11 | number of distinct restricting HLA alleles ([2]; CD8 recognition): 7 | CD8 IFN-γ responses to HSV-1 polypeptide (ORF level) ([2]; amongst the 7 participants, HLA A, B, C screens): elicit CD8 IFN-γ responses | number of persons with CD8 recognition of the ORF ([2]; of 7 persons): 5 | number of HLA-level screens in which the ORF was recognized ([2]; of 39 screens): 10
